Key:
[1] = Inhibitory activity against Beta-glucosidase from Almond; set-up: species or system Prunus dulcis
[2] = Inhibitory activity against Beta-glucosidase from Yeast; set-up: species or system Saccharomyces cerevisiae
[3] = Inhibitory activity against Beta-glucosidase from E-coli; set-up: species or system Escherichia coli

SMILES	Ki [1]	Ki [2]	Ki [3]
OCC1O/C(=N\O)C(O)C(O)C1O (centres undefined)	100 µM	–	–
O=[N+]([O-])c1ccc(O/N=C2\OC(CO)C(O)C(O)C2O)c([N+](=O)[O-])c1 (centres undefined)	80 µM	2500 nM	120 µM

Source: ChEMBL document CHEMBL1128813, “Inhibitors of glucosidases with related structures and inverse specificity” (Bioorg Med Chem Lett, 1995)
